In assay [1] the target is T1, PD-L1 on MC38 cell surfaces (Mus musculus, UniProt Q9EP73).
T1 construct: endogenous in cells; host or cells: MC38 cells
As to the kind of experiment: FACS detection of antigen-binding capacity on PD-L1 positive MC38 cells (FITC secondary antibody). As for the experimental part:
MC38 cells were treated with anti-PD-L1 antibody, anti-PD-L1 THIOMAB and ADC HE-S2, and then stained with FITC-labeled goat anti-human secondary antibody; the FITC signal intensity on MC38 surfaces was analyzed by FACS technique detection. A. The histograms of different colors represent, from top to bottom, the fluorescence signals measured for the negative control (NC) group, the secondary antibody group, the anti-PD-L1 antibody group, the anti-PD-L1 THIOMAB group, and the ADC HE-S2 group, respectively. B. Mean fluorescence intensity (MFI) measured after treatment with different antibody-based drugs on MC38. NC group: the negative control only added with the isotype antibody, with no secondary antibody added for staining; secondary antibody group: the control group added with the isotype antibody and stained with fluorescent secondary antibody. […]
With PD-L1 positive MC38 as a platform, the inventors verified whether ADC HE-S2 and the gene-modified anti-PD-L1 THIOMAB retained the original antibody-antigen binding capacity by using a fluorescence activated cell sorting (FACS) technique. […] The stained MC38 cells were analyzed on a BD FACSAria™ III flow cytometer, and the strength of FITC fluorescence signals on MC38 cells treated with different antibody-based drugs was detected and compared, so as to characterize the affinity of ADC, THIOMAB and antibodies to PD-L1.

The test system of another assay is MC38 cells. As to the kind of experiment: Internalization of pHrodo red labeled anti-PD-L1 THIOMAB in cancer cells (IncuCyte). The format is cell-based, mouse. The following applies: 24 h, pHrodo red labeled antibody, control 84.88. As for the experimental part: After MC38 and B16 cells were treated for 24 hours with anti-PD-L1 THIOMAB labeled with pHrodo™ red dye, A. high-definition phase images, red fluorescence images and combined images of cells were collected by using an IncuCyte® viable cell system; B. a total red object integrated intensity histogram was obtained by analysis using IncuCyte® software, wherein the logarithm of 10 was taken for the ordinate data. Student's t test was used to compare significant differences between the groups, and p<0.0001 is represented by ****.
The pHrodo™ red dye is known to be a pH sensitive fluorescent dye, which rapidly increases in molecular fluorescence intensity when the surrounding environment becomes acidic (Lehrman et al., 2018). When the dye was internalized into the cells along with the antigen-antibody complex, the pH of the environment around the dye was reduced to acidity, thereby producing an observable fluorescence signal. This property allowed the internalization process of the antibody to be monitored by using the pHrodo™ red dye. Through the IncuCyte® viable cell analysis system, the inventors could perform image-based monitoring and quantitative analysis on the internalization process of the anti-PD-L1 antibody labeled with the pHrodo™ red dye. […]

Assay [2] deals with PD-L1 negative Cd274 knockout DC 2.4 cells. The assay is described as follows: Preliminary internalization experiment in DC cells (FACS, 10% FBS). The format is cell-based, mouse. The following applies: Cd274 knockout DC 2.4, 10% FBS, incubation 8 h, pHrodo red labeled antibody. As for the experimental part:
(§1) PD-L1 positive wild-type DC 2.4 cells and PD-L1 negative Cd274 knockout DC 2.4 cells were cultured in a 10% FBS culture medium, anti-PD-L1 THIOMAB labeled with pHrodo™ red dye was added after the cell state was stable, and the cells were incubated overnight. The intracellular red fluorescence intensity was then analyzed by FACS to characterize the internalization level of THIOMAB.
(§2) To verify internalization of anti-PD-L1 THIOMAB on DC cells, the inventors acquired two kinds of DC cells, which were Cd274 knockout DC 2.4 cells and wild-type DC 2.4 cells, from the teacher named Tang Haidong of the School of Pharmaceutical Sciences, Tsinghua University. The Cd274 gene was a PD-L1 encoding gene, and the knocked-out DC 2.4 could not express PD-L1 protein, so the first kind of cells was PD-L1 negative DC cells; while wild-type DC 2.4 could express PD-L1, so the second kind of cells was PD-L1 positive DC cells (as shown in FIG. 12). […]
(§3) In preliminary experiments, the inventors added 10% heat-inactivated fetal bovine serum (FBS) as a blocking agent to a culture medium of DC 2.4 cells according to a conventional procedure, and detected the red fluorescence signals in the cells by FACS after incubation for 8 h, and the results are shown in FIG. 13. […]

Assay [3] has as its system PD-L1 positive wild-type DC 2.4 cells. Described as above. The format is cell-based, mouse. Particulars: wild-type DC 2.4, 10% FBS, incubation 8 h, pHrodo red labeled antibody. How it is done:
as §1, §2, §3

T1 sequence (Q9EP73 19-290): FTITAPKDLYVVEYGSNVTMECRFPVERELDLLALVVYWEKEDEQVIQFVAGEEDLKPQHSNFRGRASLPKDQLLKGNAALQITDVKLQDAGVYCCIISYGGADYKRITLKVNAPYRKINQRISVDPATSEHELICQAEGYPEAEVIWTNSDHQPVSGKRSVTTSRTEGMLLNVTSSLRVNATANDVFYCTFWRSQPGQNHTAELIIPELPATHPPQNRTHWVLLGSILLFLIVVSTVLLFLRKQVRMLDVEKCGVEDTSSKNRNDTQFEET

For “anti-PD-L1 THIOMAB: mutant avelumab, light chain V205C (SEQ ID NO: 9), heavy chain SEQ ID NO: 4; pHrodo red labeled in internalization tests”, in assay [1], the “MFI compared with the natural anti-PD-L1 antibody (Student's t test)” value was “no significant difference”. For the same substance, the “total red object integrated intensity” value in the assay on MC38 cells is 13701.63. Moreover, the “proportion of red fluorescence positive cells” value in assay [2] is recorded as 52.9%; in assay [3], 53.6%.

The values above are taken from patent publication US20240252670A1, “ANTIBODY DRUG CONJUGATE, PREPARATION METHOD THEREFOR AND APPLICATION THEREOF” (TSINGHUA UNIVERSITY, priority 2021, published 2024).
